Measured values reported in BindingDB's records for PubMed 1828505 (University of Pennsylvania, 1991).
“And” between values parts separate entries of the source, which are not always exact repeats. Equal values may be shown once.

Molecular target: D(2) dopamine receptor (Homo sapiens, UniProt P14416)
Sequence (P14416 whole entry): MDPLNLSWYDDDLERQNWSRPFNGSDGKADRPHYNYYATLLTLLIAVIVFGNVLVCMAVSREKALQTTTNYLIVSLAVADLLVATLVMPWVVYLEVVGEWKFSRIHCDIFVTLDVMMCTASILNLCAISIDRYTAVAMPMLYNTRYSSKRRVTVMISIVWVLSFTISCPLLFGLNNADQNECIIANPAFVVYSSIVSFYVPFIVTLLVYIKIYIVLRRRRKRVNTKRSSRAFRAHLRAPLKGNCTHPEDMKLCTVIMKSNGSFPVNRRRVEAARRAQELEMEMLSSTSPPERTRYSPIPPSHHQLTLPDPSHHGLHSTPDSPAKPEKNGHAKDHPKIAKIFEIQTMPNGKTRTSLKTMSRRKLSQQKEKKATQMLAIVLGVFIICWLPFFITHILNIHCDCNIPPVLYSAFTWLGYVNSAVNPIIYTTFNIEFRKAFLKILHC

Ki: 0.6 nM and 2.3 nM and 0.66 nM and 0.73 nM and 2.5 nM
SMILES: OCCN1CCN(CC/C=C2/c3ccccc3Sc3ccc(C(F)(F)F)cc32)CC1 [(cis) 2-{4-[3-(2-Trifluoromethyl-thioxanthen-9-ylidene)-propyl]-piperazin-1-yl}-ethanol(Flupentixol)]
